Measured values published in patent US20240156796A1, “PHARMACEUTICAL COMPOSITION FOR TREATMENT OR PREVENTION OF STRESS-RELATED DISORDERS” (TOKYO UNIVERSITY OF SCIENCE FOUNDATION, priority 2021, published 2024).

What was measured:
mouse [1] = test: Mouse contextual fear conditioning test (effect on reconsolidation of fear memories), s.c. immediately after second day test; assay type: in vivo; conditions: 1 mg/kg, 3 mg/kg s.c. immediately after second day test; third day; vs solvent group (FIG. 3)
κ-opioid receptor [2] = biological target: T1, κ-opioid receptor (Homo sapiens, UniProt P41145); test: Opioid receptor function test (antagonist activity) against 100 nM U-69593; assay type: cell-based; conditions: antagonist activity vs 100 nM U-69593
T1 construct: host or cells: CHO cells
T1 sequence (P41145 whole entry): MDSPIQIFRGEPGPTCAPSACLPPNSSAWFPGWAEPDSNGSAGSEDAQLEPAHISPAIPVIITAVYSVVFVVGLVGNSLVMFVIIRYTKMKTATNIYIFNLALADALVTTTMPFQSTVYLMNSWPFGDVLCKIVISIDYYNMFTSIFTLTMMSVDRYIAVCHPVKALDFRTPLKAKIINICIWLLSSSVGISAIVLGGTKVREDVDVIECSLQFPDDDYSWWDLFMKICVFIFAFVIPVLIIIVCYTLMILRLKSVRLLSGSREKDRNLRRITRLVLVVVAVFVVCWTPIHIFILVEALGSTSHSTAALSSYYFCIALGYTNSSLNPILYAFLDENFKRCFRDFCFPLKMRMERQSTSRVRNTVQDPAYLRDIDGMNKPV
Experimental: (§1) Method: Using a Lance Ultra cAMP kit (manufactured by PerkinElmer, Inc.), the investigation was conducted in accordance with the prescribed method. In the evaluations of agonist activity, CHO cells expressing each of the human opioid receptors (δ, μ and κ: accession numbers and catalog numbers listed below) and each test compound were reacted for 30 minutes in an assay buffer (1×HBSS, 1 M HEPES, pH 7.4, 250 mM IBMX (isobutylmethylxanthine), 7.5% BSA) in the presence of 10 μM forskolin. Subsequently, the cAMP detection reagent included in the kit was added, and after 1 hour, a time-resolved fluorescence measurement was performed using an EnVision plate reader (manufactured by PerkinElmer, Inc.). […] The Emax value was calculated as the ratio of the maximum response of the test compound relative to a value of 100% for the maximum response of each control drug.
(§2) Evaluations of antagonist activity relative to the μ- and κ-opioid receptors were conducted using the same method as (1) above. A fixed concentration of each control drug (μ: 30 nM DAMGO, κ: 100 nM U-69593), the test compound and CHO cells expressing each of the human opioid receptors were reacted for 30 minutes in an assay buffer in the presence of 10 μM forskolin. The test compounds were evaluated in a concentration range from 10^−12 to 10^−5 M, and subsequent operations were conducted in the same manner as the agonist activity evaluations. A dose-response curve was determined for each test compound using a value of 100% for the response of each control drug in the absence of the test compound, and the concentration that inhibited 50% of the control drug response (namely, the IC50 value) was calculated.

mouse [3] = test: Mouse contextual fear conditioning test (effect on reconsolidation of fear memories), p.o. before second day test; assay type: in vivo; conditions: 20 mg/kg p.o. two hours before second day test; second and third days; test time 2 minutes; vs solvent group (FIG. 2)
Experimental: <Mouse Contextual Fear Conditioning Test (Effect on Reconsolidation of Fear Memories)> Using the same contextual fear conditioning test as Example 41, the effect on the reconsolidation of fear memories was investigated. The test was conducted in accordance with the method described in Non-Patent Document 4. Administration of the compound of Example 7 (20 mg/kg p.o.) or a solvent was conducted two hours prior to placing the mouse in the experimental chamber on the second day. In this test, the test time on the second and third days was set to 2 minutes.

mouse [4] = test: Mouse contextual fear conditioning test (effect on extinction learning of fear memories); assay type: in vivo; conditions: 5, 10, 20 mg/kg p.o. two hours before second day test; second and third days; test time 6 minutes; vs solvent group (FIG. 1)
Experimental: The effect of the compound of Example 7 on extinction learning of fear memories was investigated in a mouse contextual fear conditioning test. The test was conducted in accordance with the method described in Non-Patent Document 4. Administration of the compound of Example 7 (5, 10, 20 mg/kg p.o.) or a solvent was conducted two hours prior to placing the mouse in the experimental chamber on the second day.

μ-opioid receptor = biological target: T2, μ-opioid receptor (Homo sapiens, UniProt P35372); test: Opioid receptor function test (antagonist activity) against 30 nM DAMGO; assay type: cell-based; conditions: antagonist activity vs 30 nM DAMGO
T2 construct: host or cells: CHO cells
T2 sequence (P35372 whole entry): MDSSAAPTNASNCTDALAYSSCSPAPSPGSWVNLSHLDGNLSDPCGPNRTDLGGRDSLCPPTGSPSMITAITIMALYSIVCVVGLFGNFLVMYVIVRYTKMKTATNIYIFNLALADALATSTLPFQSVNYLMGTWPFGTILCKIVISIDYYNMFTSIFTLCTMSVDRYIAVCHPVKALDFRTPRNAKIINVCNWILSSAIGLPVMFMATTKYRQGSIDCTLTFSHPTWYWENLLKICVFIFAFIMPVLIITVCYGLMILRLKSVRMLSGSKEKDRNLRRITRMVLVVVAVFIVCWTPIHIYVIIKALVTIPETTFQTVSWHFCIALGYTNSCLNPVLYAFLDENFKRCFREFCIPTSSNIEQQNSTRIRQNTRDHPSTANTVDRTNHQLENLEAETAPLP
Experimental: as §1, §2

[5] = animal model, Non-Patent Documents 4 and 5; cited from earlier work
κ-opioid receptor [6] = biological target: T1, κ-opioid receptor; test: Opioid receptor function test (agonist activity), Lance Ultra cAMP kit, CHO cells expressing human κ-opioid receptor; assay type: cell-based; conditions: maximum response not reached, response rate at maximum concentration (10 μM), relative to U-69593, read-out: κ-receptor Emax (*response rate at the maximum concentration, reference value)
Experimental: The functional activity of the compounds provided by the present invention relative to μ-, δ- and κ-opioid receptors was investigated.
as §1
SNC80: (+)-4-[(aR)-α-((2S,5R)-4-allyl-2,5-dimethyl-1-piperazinyl)-3-methoxybenzyl]-N,N-diethylbenzamide DAMGO: [D-Ala^2,N-MePhe^4,Gly-ol]enkephalin U-69593: (+)-(5α,7α,8β)-N-methyl-N-[7-(1-pyrrolidinyl)-1-oxaspiro[4.5]dec-8-yl]benzeneacetamide

Question: With `O=C(c1cccc(=O)[nH]1)N1C[C@H]2C[C@@]34CC[C@@H]1[C@@H]2[C@@]31CCN(CC2CC2)[C@@H]4Cc2ccc(O)cc21` [Example 7, 6-((1S,3aR,5aS,6R,11bR,11cS)-14-(cyclopropylmethyl)-10-hydroxy-2,3,3a,4,5,6,7,11c-octahydro-1H-6,11b-(epiminoethano)-1,5a-methanonaphtho[1,2-e]indole-3-carbonyl)pyridin-2(1H)-one] as the molecule, how does the “fear response (freezing behavior)” value (mouse [1]) read?
Answer: significant reduction in fear response

Question: And the IC50 (κ-opioid receptor [2])?
Answer: 4.6 nM

Question: And the “fear response (freezing behavior)” value (mouse [3])?
Answer: significant reduction in fear response

Question: What about the “fear response (freezing behavior, % of test time)” value (mouse [4]) of the same molecule?
Answer: significant reduction in fear response

Question: And the IC50 (μ-opioid receptor)?
Answer: 1.3 nM

Question: With `C=CCN1C[C@H](C)N([C@H](c2ccc(C(=O)N(CC)CC)cc2)c2cccc(OC)c2)C[C@H]1C` [SNC80, (+)-4-[(aR)-α-((2S,5R)-4-allyl-2,5-dimethyl-1-piperazinyl)-3-methoxybenzyl]-N,N-diethylbenzamide] as the molecule, how does the “anxiolytic effect through the extinction of anxiety or fear memories” value [5] read?
Answer: exhibited an anxiolytic effect

Question: What does the source list for `O=C(c1cccc[n+]1[O-])N1C[C@H]2C[C@@]34CC[C@@H]1[C@@H]2[C@@]31CCN(CC2CC2)[C@@H]4Cc2ccc(O)cc21` [Example 1, 2-((1S,3aR,5aS,6R,11bR,11cS)-14-(cyclopropylmethyl)-10-hydroxy-2,3,3a,4,5,6,7,11c-octahydro-1H-6,11b-(epiminoethano)-1,5a-methanonaphtho[1,2-e]indole-3-carbonyl)pyridine 1-oxide]?
Answer: IC50 (κ-opioid receptor [2]): 3.3 nM; IC50 (μ-opioid receptor): 4.1 nM

Question: Which results are given for `Cn1c(C(=O)N2C[C@H]3C[C@@]45CC[C@@H]2[C@@H]3[C@@]42CCN(CC3CC3)[C@@H]5Cc3ccc(O)cc32)cccc1=O` [Example 10, 6-((1S,3aR,5aS,6R,11bR,11cS)-14-(cyclopropylmethyl)-10-hydroxy-2,3,3a,4,5,6,7,11c-octahydro-1H-6,11b-(epiminoethano)-1,5a-methanonaphtho[1,2-e]indole-3-carbonyl)-1-methylpyridin-2(1H)-one]?
Answer: IC50 (κ-opioid receptor [2]): 3.4 nM; IC50 (μ-opioid receptor): 5.7 nM

Question: Which IC50 (κ-opioid receptor [2]) does the source give for `CCn1cc(C(=O)N2C[C@H]3C[C@@]45CC[C@@H]2[C@@H]3[C@@]42CCN(CC3CC3)[C@@H]5Cc3ccc(O)cc32)ccc1=O` [Example 28, 5-((1S,3aR,5aS,6R,11bR,11cS)-14-(cyclopropylmethyl)-10-hydroxy-2,3,3a,4,5,6,7,11c-octahydro-1H-6,11b-(epiminoethano)-1,5a-methanonaphtho[1,2-e]indole-3-carbonyl)-1-ethylpyridin-2(1H)-one] here?
Answer: 4 nM

Question: What about the IC50 (μ-opioid receptor) of the same molecule?
Answer: 2.1 nM

Question: Which IC50 (κ-opioid receptor [2]) does the source give for `Cn1cc(C(=O)N2C[C@H]3C[C@@]45CC[C@@H]2[C@@H]3[C@@]42CCN(CC3CC3)[C@@H]5Cc3ccc(O)cc32)ccc1=O` [Example 9, 5-((1S,3aR,5aS,6R,11bR,11cS)-14-(cyclopropylmethyl)-10-hydroxy-2,3,3a,4,5,6,7,11c-octahydro-1H-6,11b-(epiminoethano)-1,5a-methanonaphtho[1,2-e]indole-3-carbonyl)-1-methylpyridin-2(1H)-one] here?
Answer: 3.3 nM

Question: And the IC50 (μ-opioid receptor)?
Answer: 2.4 nM

Question: With `O=C(c1cc(=O)cc[nH]1)N1C[C@H]2C[C@@]34CC[C@@H]1[C@@H]2[C@@]31CCN(CC2CC2)[C@@H]4Cc2ccc(O)cc21` [Example 14, 2-((1S,3aR,5aS,6R,11bR,11cS)-14-(cyclopropylmethyl)-10-hydroxy-2,3,3a,4,5,6,7,11c-octahydro-1H-6,11b-(epiminoethano)-1,5a-methanonaphtho[1,2-e]indole-3-carbonyl)pyridin-4(1H)-one] as the molecule, how does the Emax at 10 µM (κ-opioid receptor [6]) read?
Answer: 5.7%

Question: With `O=C(c1ccc[nH]c1=O)N1C[C@H]2C[C@@]34CC[C@@H]1[C@@H]2[C@@]31CCN(CC2CC2)[C@@H]4Cc2ccc(O)cc21` [Example 3, 3-((1S,3aR,5aS,6R,11bR,11cS)-14-(cyclopropylmethyl)-10-hydroxy-2,3,3a,4,5,6,7,11c-octahydro-1H-6,11b-(epiminoethano)-1,5a-methanonaphtho[1,2-e]indole-3-carbonyl)pyridin-2(1H)-one] as the molecule, how does the IC50 (κ-opioid receptor [2]) read?
Answer: 11.1 nM

Question: What about the IC50 (μ-opioid receptor) of the same molecule?
Answer: 4.6 nM
